In patent publication US10004826B2, “Implantable human liver tissue constructs and uses thereof” (Massachusetts Institute of Technology, priority 2010, dated 2018):

Legend:
human CYP2D6 = test: Debrisoquine metabolism and pharmacokinetics in humanized C57/BL6 mice; conditions: debrisoquine 2 mg/kg oral gavage
Method: Humanized mice established on a C57/Bl6 mouse background were administered debrisoquine at 2 mg/kg by oral gavage. Following drug administration, mice were bled by retro-orbital draw at specific timepoints, and drug concentration quantified by LC/MS/MS. […] Error bars are SEM for n=3 mice per group.
(§2) Mice administered 80 mg/kg of coumarin injected i.p. or 2 mg/kg debrisoquine (DB) gavaged p.o were subjected to retro-orbital draw at 5, 10 15, 30, 60, 90, and 120 minutes after drug administration, and terminal urine collection at 4 h. From ˜100 ml blood collections, serum was separated by centrifugation at 1200 g for 10 minutes and stored at −20° C. […] The area under the curve from time 0 until the time of the last measurable plasma concentration (AUC0-t) was calculated using the linear trapezoidal. Peak concentration (Cmax) and time to reach maximum concentration (tmax) values were obtained directly from the plasma concentration-time profile. Metabolic ratios were determined by dividing the AUC0-t of metabolite by the AUC0-t of the parent drug.
(§3) Following coumarin or debrisoquine exposure, serum or urine was sampled for quantitation of drug parent and metabolite concentrations by liquid chromatography (LC)/MS/MS.

human CYP2A6 = target: T1, human CYP2A6 (Homo sapiens, UniProt P11509); conditions: athymic nude, mouse, in vivo, ip, 80 mg/kg
T1 sequence (P11509 1-494): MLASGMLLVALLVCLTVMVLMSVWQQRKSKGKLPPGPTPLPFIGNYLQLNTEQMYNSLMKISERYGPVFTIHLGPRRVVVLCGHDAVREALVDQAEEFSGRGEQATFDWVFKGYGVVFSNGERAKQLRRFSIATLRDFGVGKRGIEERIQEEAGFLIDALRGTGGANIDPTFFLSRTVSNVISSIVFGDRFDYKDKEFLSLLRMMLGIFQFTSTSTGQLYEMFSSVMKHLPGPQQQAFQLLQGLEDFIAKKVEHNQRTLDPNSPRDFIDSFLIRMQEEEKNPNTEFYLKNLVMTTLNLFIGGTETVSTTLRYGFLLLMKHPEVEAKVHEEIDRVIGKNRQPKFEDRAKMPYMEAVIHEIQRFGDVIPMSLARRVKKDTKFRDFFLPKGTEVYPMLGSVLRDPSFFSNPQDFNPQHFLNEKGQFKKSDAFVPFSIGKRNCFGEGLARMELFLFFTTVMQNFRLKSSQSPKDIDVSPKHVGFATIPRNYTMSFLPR
Method: Humanized mice established on a nude mouse background were administered coumarin at 80 mg/kg by intraperitoneal injection. Following drug administration, mice were bled by retro-orbital draw at specific timepoints, and drug concentration quantified by LC/MS/MS. Open circles represent humanized mice, and closed circles represent wild-type (no implant) mice. Error bars are SEM for n=3 mice per group.
as §2, §3

Mouse livers = conditions: in vivo
Method: Serum samples acquired at 4 h following APAP exposure were assayed for the liver damage marker alanine transaminase (ALT) using an endpoint colorimetric enzymatic assay.
Serum samples acquired at 4 h following APAP exposure were assayed for the liver damage markers aspartame transaminase (AST) using an endpoint colorimetric enzymatic assay. Shown are individual data points for n=3 mice per group, where black bars represent average values for each group.
Explanted livers were sectioned and stained with H&E. Shown are representative sections.
At day 9 of implantation, mice were fed by oral gavage with 500 ml drinking water or 500 ml acetaminophen (APAP, 250 mg/kg) in water. Mice were fasted for 16 h prior to APAP administration. Following APAP exposure, blood was collected by retro-orbital draw at 4 h. Blood samples were acquired by retro-orbital draw at 4 h following APAP exposure, serum separated, and serum analyzed for enzymatic activity of alanine transaminase (ALT) and aspartame transaminase (AST), non-species specific markers of liver damage (Teco Diagnostics). Engineered liver mimetics and mouse livers were extracted for biochemical and histological analysis. Mouse livers were paraffin-embedded, sectioned with 5 um slices, de-paraffinized and stained for hematoxylin and eosin (H&E).

hepatitis C virus = conditions: uPA+/+/SCID model; cited from earlier work
human liver mimetics = test: Human hepatotoxicity in humanized mice by serum human albumin ELISA; format: in vivo, mouse; conditions: inducers daily at days 4-7 post-implantation; OME oral gavage, RIF i.p.; blood days 2, 5, 7
Source text: Error bars are SEM for n=3 or greater.
Blood was collected by retro-orbital draw on days 2, 5 and 7 days after implantation for drug-treated mice and control mice with acellular hydrogel intraperitoneal implantations. Red bars mark average human serum albumin levels at each timepoint for n=3-6 mice per condition.
(§1) Human albumin in serum or media samples was quantified by enzyme-linked immunosorbant assay performed using goat anti-human albumin antibody, horseradish peroxidase detection, and 3,3′,5,5′-tetramethylbenzidine development. Urea was measured by acid- and heat-catalyzed detection of diacetylmonoxime conversion to a colorimetric product. Alanine aminotransfer (ALT) and aspartate aminotransfer (AST) enzymatic levels were detected with clinical kits based on colorimetric endpoint methods.

[1] = system: luciferase-expressing Plasmodium berghei (Pb-luc); conditions: Huh7.5 and HC04 hepatoma cells in alginate
Method: Primary adult human hepatocytes and J2 stromal fibroblasts were seeded in lyophilized alginate sponges and infected with luciferase-expressing Plasmodium berghei (Pb-luc) three days post-seeding. Bioluminescence imaging was performed two days post-infection (FIG. 11a).
Next, the response of Pb-luc-infected hepatoma aggregates in alginate to primaquine treatment was tested.

[2] = system: encapsulated human hepatocytes; test: Albumin secretion and urea synthesis of HEP/FIB encapsulated in peptide-derivatized PEG-DA hydrogel; format: cell-based; conditions: 10 μmol/ml peptide; vs RGES controls; one week in vitro
Method: Liver mimetics were fabricated using a hydrogel polymerization apparatus. In brief, cellular pre-polymer solution was loaded into a 20-mm diameter, […] silicone spacer, and the solution exposed to UV light from a spot curing system with collimating lens (320-390 nm, 10 mW/cm^2, 20-30 s; EXFO Lite). […] Acrylate-PEG-peptide monomers were synthesized by conjugating RGDS or RGES to acrylate-PEG-N-hydroxysuccinimide (3.4 kDa) at a 1:1 molar ratio in 50 mM sodium bicarbonate buffer (pH 8.5). Reactions were dialyzed overnight against […] MWCO cellulose ester membrane and lyophilized for long-term storage at −80° C. Hepatocyte/fibroblast co-cultures were encapsulated at a final concentration of 8×10^6 hepatocytes/ml pre-polymer, in the absence or presence of an additional 6×10^6 liver endothelial cells (LEC)/ml of pre-polymer.
as §1, with “methods. […]” for “methods.”

With `N=C(N)N1Cc2ccccc2C(O)C1` (centres unmarked) [4-OHDB, 4-hydroxydebrisoquine] the “Metabolic ratio (metabolite exposure over parent drug exposure, AUC), 4-OHDB/debrisoquine” value (human CYP2D6) was greater than 0.1.
With `O=c1ccc2ccc(O)cc2o1` [7-HC, 7-hydroxycoumarin] the “Metabolic ratio (metabolite exposure over parent drug exposure, AUC), 7-HC/coumarin” value (human CYP2A6) was greater than 0.1.
In the case of `CC(=O)Nc1ccc(O)cc1` [APAP, acetaminophen], the “Mouse liver injury by serum liver function enzyme tests and histopathology” value (Mouse livers) is reported as “appeared uninjured”.
For `COc1ccc2c(O[C@@H]3C[C@H]4C(=O)N[C@]5(C(=O)O)C[C@H]5/C=C\CCCCC[C@H](NC(=O)OC5CCCC5)C(=O)N4C3)cc(-c3csc(NC(C)C)n3)nc2c1` [BILN-2061], the “Response of HCV infection to anti-HCV therapy” value (hepatitis C virus) is given as “responding”.
With `COc1ccc2[nH]c([S+]([O-])Cc3ncc(C)c(OC)c3C)nc2c1` (centres unmarked) [OME, omeprazole] the “Human serum albumin from humanized mice over time” value (human liver mimetics) was “not affected”.
In the case of `CO[C@H]1/C=C/O[C@@]2(C)Oc3c(C)c(O)c4c(O)c(c(/C=N/N5CCN(C)CC5)c(O)c4c3C2=O)NC(=O)/C(C)=C\C=C\[C@H](C)[C@H](O)[C@@H](C)[C@@H](O)[C@@H](C)[C@H](OC(C)=O)[C@@H]1C` [RIF, rifampin], the “Mouse liver injury by serum liver function enzyme tests and histopathology” value (Mouse livers) is reported as “appeared uninjured”.
With `COc1cc(NC(C)CCCN)c2ncccc2c1` (centres unmarked) [primaquine] the “Inhibition of parasite development (BLI quantification)” value [1] was “greater effect on inhibiting parasite development in Huh7.5 than in HC04”.
With RGDS the “Improvement of encapsulated HEP/FIB synthetic and secretory functions” value [2] was “two- to three-fold”.
